Reference: US20260098046A1, “RIFABUTIN ANALOGS FOR THE TREATMENT OF DISEASE” (BIOVERSYS AG, priority 2022, published 2026)
In brackets after ≈: the same amount, converted by molar mass. Like-named read-outs stand apart in the source and are kept apart here.

Columns and labels:
Type in all cases: cell-based
[1] = tested on: A. baumannii (HUMC1 strain); assay: MIC by broth microdilution (CLSI) against A. baumannii; conditions: Acinetobacter baumannii, RPMI medium supplemented with 10% FCS, 35° C. for 20 hours, read-out: In vitro activity (MIC) A. baumannii
Experimental: (§1) MIC values were determined by broth microdilution method according to the CLSI guideline. Unless otherwise mentioned, MIC against A. baumannii was performed in RPMI medium supplemented with 10% FCS. MIC against M. abscessus was performed in Middlebrook 7H9 broth supplemented with Middlebrook ADC growth supplement (10%). All other MIC were performed in standard cation adjusted Mueller Hinton broth, supplemented with Middlebrook ADC growth supplement (5%) for the slow growing mycobacteria (M. xenopi, M. kansasii and M. avium).
(§2) The following procedure applies to all species tested, except for M. xenopi. From a fresh culture plate (from overnight to several days depending on the bacteria), cells were resuspended in 0.9% (w/v) saline solution and bacterial inoculum was prepared in the respective testing medium with 5×10^5 CFU/mL. For M. xenopi, the inoculum was prepared from a fresh liquid culture (7H9+ADC). The appropriate volumes of a 10 mg/mL compound solution were directly dispensed in the 96-well assay plate using a digital dispenser to create two-fold dilution series from 32 to 0.002 μg/mL final concentration for A. baumannii and S. aureus; from 16 to 0.016 μg/mL for M. abscessus and M. avium; and from 1 to 6×10^−5 μg/mL for M. kansasii and M. xenopi. 100 μL of bacterial suspension was finally added to the compounds. Plates were covered and incubated without shaking at 35° C. for 20 hours for A. baumanii and S. aureus; at 30° C. for 4 days for M. abscessus; and at 37° C. for 7 days (at least) for M. kansasii (covered with aluminum foil to avoid light exposure), M. avium and M. xenopi. Every experiment contained an antibiotic as quality control. MIC was determined visually as the lowest concentration of a compound that prevents visible growth of the bacteria.
(§3) The in vitro activity of compounds described herein was determined against S. aureus (UAMS-1625 strain), A. baumannii (HUMC1 strain), M. abscessus (ATCC 19977), M. kansasii (ATCC12478), M. avium (ATCC25291), and M. xenopi (ATCC19250).

M. kansasii (ATCC12478) = assay: MIC by broth microdilution (CLSI) against M. kansasii; conditions: Mycobacterium kansasii, 168 h, cation adjusted Mueller Hinton broth + ADC (5%), 37° C. for 7 days (at least), read-out: In vitro activity (MIC) M. kansasii
Experimental: as §1, §2, §3

[2] = tested on: M. abscessus (ATCC 19977); assay: MIC by broth microdilution (CLSI) against M. abscessus; conditions: Mycobacteroides abscessus
Experimental: as §1, §2, §3

[3] = tested on: S. aureus (UAMS-1625 strain); assay: MIC by broth microdilution (CLSI) against S. aureus; conditions: Staphylococcus aureus, 20 h, read-out: In vitro activity (MIC) S. aureus
Experimental: as §1, §2, §3

M. xenopi (ATCC19250) = assay: MIC by broth microdilution (CLSI) against M. xenopi; conditions: Mycobacterium xenopi, 168 h, cation adjusted Mueller Hinton broth + ADC (5%), 37° C. for 7 days (at least), read-out: In vitro activity (MIC) M. xenopi
Experimental: as §1, §2, §3

M. avium (ATCC25291) = assay: MIC by broth microdilution (CLSI) against M. avium; conditions: Mycobacterium avium, 168 h, cation adjusted Mueller Hinton broth + ADC (5%), 37° C. for 7 days (at least), read-out: In vitro activity (MIC) M. avium
Experimental: as §1, §2, §3

[4] = ATCC19977, 96 h, ATCC 19977, Middlebrook 7H9 broth + ADC (10%), 30° C. for 4 days, read-out: In vitro activity (MIC) M. abscessus
[5] = ATCC19977, tested M. abscessus strains, read-out: MIC value on M. abscessus

| Structure (SMILES) | MIC [1] [mg/L] | MIC (M. kansasii (ATCC12478)) [mg/L] | MIC [2, 4] [mg/L] | MIC [3] [mg/L] | MIC (M. xenopi (ATCC19250)) [mg/L] | MIC (M. avium (ATCC25291)) [mg/L] | MIC [2, 5] [mg/L] |
| --- | --- | --- | --- | --- | --- | --- | --- |
| CO[C@H]1/C=C/O[C@@]2(C)Oc3c(C)c(O)c4c(c3C2=O)C2=NC3(CCN(CC(C)C)CC3)NC2=C(NC(=O)/C(C)=C\C=C\[C@H](C)[C@H](O)[C@@H](C)[C@@H](O)[C@@H](C)[C@H](OC(=O)Cn2cc(-c3ccc([N+](=O)[O-])cc3)nn2)[C@@H]1C)C4=O [Compound 4] | 0.125 (≈ 0.121 µM) | 0.002 | 0.125 | 0.5 (≈ 0.483 µM) | 0.03 | 0.03 |  |
| COc1ccc2cc(-c3cn(CC(=O)O[C@H]4[C@H](C)[C@H](O)[C@H](C)[C@@H](O)[C@@H](C)/C=C/C=C(/C)C(=O)NC5=C6NC7(CCN(CC(C)C)CC7)N=C6c6c(c(O)c(C)c7c6C(=O)[C@@](C)(O/C=C/[C@H](OC)[C@H]4C)O7)C5=O)nn3)ccc2c1 [Compound 6] | 1 (≈ 0.934 µM) | 0.002 | 0.25 | 8 (≈ 7.47 µM) | 0.03 | 0.06 |  |
| CO[C@H]1/C=C/O[C@@]2(C)Oc3c(C)c(O)c4c(c3C2=O)C2=NC3(CCN(CC(C)C)CC3)NC2=C(NC(=O)/C(C)=C\C=C\[C@H](C)[C@H](O)[C@@H](C)[C@@H](O)[C@@H](C)[C@H](OC(C)=O)[C@@H]1C)C4=O [Rifabutin, rifabutin] | ≤ 0.002 | 0.001 | 8 | 0.016 (≈ 0.0189 µM) | 0.03 | 0.125 | 8 (≈ 9.44 µM) |
| CO[C@H]1/C=C/O[C@@]2(C)Oc3c(C)c(O)c4c(c3C2=O)C2=NC3(CCN(CC(C)C)CC3)NC2=C(NC(=O)/C(C)=C\C=C\[C@H](C)[C@H](O)[C@@H](C)[C@@H](O)[C@@H](C)[C@H](OC(=O)Cn2cc(CNS(=O)(=O)c3ccc(C)cc3)nn2)[C@@H]1C)C4=O [Compound 17] | 0.008 (≈ 0.00729 µM) |  | 0.5 | 0.25 (≈ 0.228 µM) |  |  |  |
| CO[C@H]1/C=C/O[C@@]2(C)Oc3c(C)c(O)c4c(c3C2=O)C2=NC3(CCN(CC(C)C)CC3)NC2=C(NC(=O)/C(C)=C\C=C\[C@H](C)[C@H](O)[C@@H](C)[C@@H](O)[C@@H](C)[C@H](OC(=O)Cn2cc(CN3CCS(=O)(=O)CC3)nn2)[C@@H]1C)C4=O [Compound 14] | ≤ 0.002 |  | 1 | 0.06 (≈ 0.0565 µM) |  |  |  |
| COc1ccc(-c2cn(CC(=O)O[C@H]3[C@H](C)[C@H](O)[C@H](C)[C@@H](O)[C@@H](C)/C=C/C=C(/C)C(=O)NC4=C5NC6(CCN(CC(C)C)CC6)N=C5c5c(c(O)c(C)c6c5C(=O)[C@@](C)(O/C=C/[C@H](OC)[C@H]3C)O6)C4=O)nn2)cc1 [Compound 2] | 0.016 (≈ 0.0157 µM) | 0.002 | 0.25 | 0.125 (≈ 0.123 µM) | 0.125 | 0.06 |  |
| CO[C@H]1/C=C/O[C@@]2(C)Oc3c(C)c(O)c4c(c3C2=O)C2=NC3(CCN(CC(C)C)CC3)NC2=C(NC(=O)/C(C)=C\C=C\[C@H](C)[C@H](O)[C@@H](C)[C@@H](O)[C@@H](C)[C@H](OC(=O)Cn2cc(CCc3ccccc3)nn2)[C@@H]1C)C4=O [Compound 9] | 0.03 (≈ 0.0295 µM) | 0.002 | 0.25 | 0.5 (≈ 0.491 µM) | 0.03 | 0.06 |  |
| CO[C@H]1/C=C/O[C@@]2(C)Oc3c(C)c(O)c4c(c3C2=O)C2=NC3(CCN(CC(C)C)CC3)NC2=C(NC(=O)/C(C)=C\C=C\[C@H](C)[C@H](O)[C@@H](C)[C@@H](O)[C@@H](C)[C@H](OC(=O)Cn2cc(C(C)(C)C)nn2)[C@@H]1C)C4=O [Compound 27] | 0.004 (≈ 0.00412 µM) |  | 2 | 0.06 (≈ 0.0618 µM) |  |  |  |
| CO[C@H]1/C=C/O[C@@]2(C)Oc3c(C)c(O)c4c(c3C2=O)C2=NC3(CCN(CC(C)C)CC3)NC2=C(NC(=O)/C(C)=C\C=C\[C@H](C)[C@H](O)[C@@H](C)[C@@H](O)[C@@H](C)[C@H](OC(=O)Cn2cc(CNS(=O)(=O)c3ccc(Cl)cc3)nn2)[C@@H]1C)C4=O [Compound 18] | 0.06 (≈ 0.0537 µM) |  | 0.5 | 0.5 (≈ 0.447 µM) |  |  |  |
| CCCc1cn(CC(=O)O[C@H]2[C@H](C)[C@H](O)[C@H](C)[C@@H](O)[C@@H](C)/C=C/C=C(/C)C(=O)NC3=C4NC5(CCN(CC(C)C)CC5)N=C4c4c(c(O)c(C)c5c4C(=O)[C@@](C)(O/C=C/[C@H](OC)[C@H]2C)O5)C3=O)nn1 [Compound 24] | 0.004 (≈ 0.00418 µM) |  | 1 | 0.03 (≈ 0.0314 µM) |  |  |  |
| CO[C@H]1/C=C/O[C@@]2(C)Oc3c(C)c(O)c4c(c3C2=O)C2=NC3(CCN(CC(C)C)CC3)NC2=C(NC(=O)/C(C)=C\C=C\[C@H](C)[C@H](O)[C@@H](C)[C@@H](O)[C@@H](C)[C@H](OC(=O)Cn2cc(C(C)(C)N)nn2)[C@@H]1C)C4=O [Compound 13] | ≤ 0.002 |  | 1 | 0.125 (≈ 0.129 µM) |  |  |  |
| CO[C@H]1/C=C/O[C@@]2(C)Oc3c(C)c(O)c4c(c3C2=O)C2=NC3(CCN(CC(C)C)CC3)NC2=C(NC(=O)/C(C)=C\C=C\[C@H](C)[C@H](O)[C@@H](C)[C@@H](O)[C@@H](C)[C@H](OC(=O)Cn2cc(CNS(C)(=O)=O)nn2)[C@@H]1C)C4=O [Compound 15] | ≤ 0.002 |  | 1 | 0.125 (≈ 0.122 µM) |  |  |  |
| CO[C@H]1/C=C/O[C@@]2(C)Oc3c(C)c(O)c4c(c3C2=O)C2=NC3(CCN(CC(C)C)CC3)NC2=C(NC(=O)/C(C)=C\C=C\[C@H](C)[C@H](O)[C@@H](C)[C@@H](O)[C@@H](C)[C@H](OC(=O)Cn2cc(-c3ccc(N)cc3)nn2)[C@@H]1C)C4=O [Compound 3] | ≤ 0.002 |  | 1 | 0.03 (≈ 0.0298 µM) |  |  |  |
| CO[C@H]1/C=C/O[C@@]2(C)Oc3c(C)c(O)c4c(c3C2=O)C2=NC3(CCN(CC(C)C)CC3)NC2=C(NC(=O)/C(C)=C\C=C\[C@H](C)[C@H](O)[C@@H](C)[C@@H](O)[C@@H](C)[C@H](OC(=O)Cn2cc(-c3cccs3)nn2)[C@@H]1C)C4=O [Compound 11] | 0.008 (≈ 0.00803 µM) |  | 1 | 0.03 (≈ 0.0301 µM) |  |  |  |
| CO[C@H]1/C=C/O[C@@]2(C)Oc3c(C)c(O)c4c(c3C2=O)C2=NC3(CCN(CC(C)C)CC3)NC2=C(NC(=O)/C(C)=C\C=C\[C@H](C)[C@H](O)[C@@H](C)[C@@H](O)[C@@H](C)[C@H](OC(=O)Cn2cc(CCCc3ccccc3)nn2)[C@@H]1C)C4=O [Compound 10] | 0.125 (≈ 0.121 µM) |  | 0.5 | 8 (≈ 7.75 µM) |  |  |  |
| CO[C@H]1/C=C/O[C@@]2(C)Oc3c(C)c(O)c4c(c3C2=O)C2=NC3(CCN(CC(C)C)CC3)NC2=C(NC(=O)/C(C)=C\C=C\[C@H](C)[C@H](O)[C@@H](C)[C@@H](O)[C@@H](C)[C@H](OC(=O)Cn2cc(C3CC3)nn2)[C@@H]1C)C4=O [Compound 25] | ≤ 0.002 |  | 4 | 0.03 (≈ 0.0314 µM) |  |  |  |
| CO[C@H]1/C=C/O[C@@]2(C)Oc3c(C)c(O)c4c(c3C2=O)C2=NC3(CCN(CC(C)C)CC3)NC2=C(NC(=O)/C(C)=C\C=C\[C@H](C)[C@H](O)[C@@H](C)[C@@H](O)[C@@H](C)[C@H](OC(=O)Cn2cc(CNS(=O)(=O)c3ccccc3)nn2)[C@@H]1C)C4=O [Compound 16] | 0.008 (≈ 0.00739 µM) |  | 0.5 | 0.125 (≈ 0.115 µM) |  |  |  |
| CO[C@H]1/C=C/O[C@@]2(C)Oc3c(C)c(O)c4c(c3C2=O)C2=NC3(CCN(CC(C)C)CC3)NC2=C(NC(=O)/C(C)=C\C=C\[C@H](C)[C@H](O)[C@@H](C)[C@@H](O)[C@@H](C)[C@H](OC(=O)Cn2cc(CC3CCCCC3)nn2)[C@@H]1C)C4=O [Compound 28] | 0.03 (≈ 0.0297 µM) |  | 0.5 | 0.5 (≈ 0.495 µM) |  |  |  |
| CO[C@H]1/C=C/O[C@@]2(C)Oc3c(C)c(O)c4c(c3C2=O)C2=NC3(CCN(CC(C)C)CC3)NC2=C(NC(=O)/C(C)=C\C=C\[C@H](C)[C@H](O)[C@@H](C)[C@@H](O)[C@@H](C)[C@H](OC(=O)Cn2cc(-c3ccc(-c5ccccc5)cc3)nn2)[C@@H]1C)C4=O [Compound 7] | 1 (≈ 0.938 µM) |  | 1 | 8 (≈ 7.5 µM) |  |  |  |
| CO[C@H]1/C=C/O[C@@]2(C)Oc3c(C)c(O)c4c(O)c(c(/C=N/N5CCN(C)CC5)c(O)c4c3C2=O)NC(=O)/C(C)=C\C=C\[C@H](C)[C@H](O)[C@@H](C)[C@@H](O)[C@@H](C)[C@H](OC(C)=O)[C@@H]1C [Rifampicin, reference compound] |  |  |  |  |  |  | > 32 |
